Laboratory results as given in patent US20220259193A1, “KCNT1 INHIBITORS AND METHODS OF USE” (Praxis Precision Medicines, Inc., priority 2019, published 2022).

target: T1, KCNT1 (KNa1.1, Slack) (Homo sapiens, UniProt Q5JUK3); assay: KCNT1 patch clamp assay (SyncroPatch 384PE automated patch clamp); type: cell-based; conditions: tetracycline inducible HEK-TREX cell line; perforated patch; step from −80 mV to 0 mV; room temperature; read-out: KCNT1-WT IC50
T1 construct: expressed in transfected cells; host or cells: HEK-TREX (tetracycline-inducible HEK cell line)
T1 sequence (Q5JUK3 1-1230): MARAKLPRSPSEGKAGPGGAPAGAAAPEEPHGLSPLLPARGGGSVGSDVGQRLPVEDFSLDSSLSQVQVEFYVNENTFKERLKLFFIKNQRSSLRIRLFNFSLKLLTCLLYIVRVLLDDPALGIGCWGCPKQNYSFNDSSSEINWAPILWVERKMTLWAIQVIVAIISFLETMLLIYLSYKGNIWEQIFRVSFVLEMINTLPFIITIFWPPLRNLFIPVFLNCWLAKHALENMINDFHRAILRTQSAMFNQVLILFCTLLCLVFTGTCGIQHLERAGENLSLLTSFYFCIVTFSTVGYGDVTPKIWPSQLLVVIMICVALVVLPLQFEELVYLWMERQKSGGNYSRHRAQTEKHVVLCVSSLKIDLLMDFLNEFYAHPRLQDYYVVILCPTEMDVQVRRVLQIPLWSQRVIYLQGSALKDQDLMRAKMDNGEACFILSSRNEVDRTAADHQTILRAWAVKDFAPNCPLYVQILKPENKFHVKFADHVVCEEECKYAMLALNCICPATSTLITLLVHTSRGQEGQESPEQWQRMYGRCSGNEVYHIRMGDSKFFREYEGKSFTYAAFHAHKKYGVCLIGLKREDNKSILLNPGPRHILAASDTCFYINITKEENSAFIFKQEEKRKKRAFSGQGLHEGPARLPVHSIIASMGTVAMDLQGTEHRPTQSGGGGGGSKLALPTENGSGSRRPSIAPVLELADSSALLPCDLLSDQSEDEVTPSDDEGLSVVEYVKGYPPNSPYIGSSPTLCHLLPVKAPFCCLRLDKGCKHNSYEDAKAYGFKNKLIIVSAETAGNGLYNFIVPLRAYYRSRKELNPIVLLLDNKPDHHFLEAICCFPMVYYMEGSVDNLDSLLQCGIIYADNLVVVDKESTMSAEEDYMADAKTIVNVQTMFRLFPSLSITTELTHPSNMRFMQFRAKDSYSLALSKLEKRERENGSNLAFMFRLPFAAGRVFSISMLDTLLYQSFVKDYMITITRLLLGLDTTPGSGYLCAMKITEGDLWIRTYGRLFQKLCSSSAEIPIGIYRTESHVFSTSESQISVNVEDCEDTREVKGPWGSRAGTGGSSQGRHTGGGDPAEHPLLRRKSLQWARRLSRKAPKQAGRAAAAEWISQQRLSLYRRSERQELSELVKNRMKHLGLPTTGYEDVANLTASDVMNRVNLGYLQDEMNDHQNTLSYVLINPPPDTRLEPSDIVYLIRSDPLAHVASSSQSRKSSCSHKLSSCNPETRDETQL
How it was run: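 Tetracycline-inducible HEK-TREX cells; perforated-patch (10 μM escin) population recordings at room temperature, holding −80 mV with 100 ms step to 0 mV.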

`Cc1nn(CC(F)(F)F)cc1C(=O)N[C@@H](C)c1nc(-c2cccc(F)c2)no1` [Compound 164] and `C[C@H](NC(=O)c1cn(C)nc1C(F)(F)F)c1nc(-c2cccc(F)c2)no1` [Compound 160] fall in the same range of IC50: 1000 to 20000 nM for the first, 1000 to 20000 nM for the second.

`CC(C)Oc1cc(-c2noc([C@H](C)NC(=O)c3cc(C(F)(F)F)nn3CC(=O)N(C)C)n2)ccn1` [Compound 224, (S)-1-(2-(dimethylamino)-2-oxoethyl)-N-(1-(3-(2-isopropoxypyridin-4-yl)-1,2,4-oxadiazol-5-yl)ethyl)-3-(trifluoromethyl)-1H-pyrazole-5-carboxamide] and `C[C@H](NC(=O)c1cc(C(F)(F)F)nn1CCN(C)C)c1nc(-c2ccnc(C(F)(F)F)c2)no1` [Compound 243, (S)-1-(2-(dimethylamino)ethyl)-3-(trifluoromethyl)-N-(1-(3-(2-(trifluoromethyl)pyridin-4-yl)-1,2,4-oxadiazol-5-yl)ethyl)-1H-pyrazole-5-carboxamide] cannot be ordered by IC50: no more than 1000 nM for the first, no more than 1000 nM for the second.

`Cn1nc(C2CC2)cc1C(=O)NC(C)(C)c1nc(-c2cccc(F)c2)no1` [Compound 50] and `Cn1nc(C2CC2)cc1C(=O)NC1(c2nc(-c3cccc(F)c3)no2)CCCCC1` [Compound 66] cannot be ordered by IC50: 1000 to 20000 nM for the first, no more than 1000 nM for the second.

`Cc1nn(C(C)(C)C)cc1C(=O)N[C@@H](C)c1nc(-c2cccc(F)c2)no1` [Compound 150] and `Cc1cccc(-c2noc(C(C)NC(=O)c3c(C)cnn3C(C)C)n2)c1` (centres unmarked) [Compound 55] cannot be ordered by IC50: no more than 1000 nM for the first, 1000 to 20000 nM for the second.

`CC(C)Oc1cc(-c2noc([C@H](C)NC(=O)OC(C)(C)C)n2)ccn1` [Compound 286, tert-butyl (S)-(1-(3-(2-isopropoxypyridin-4-yl)-1,2,4-oxadiazol-5-yl)ethyl)carbamate] and `C[C@H](NC(=O)c1cc(C(F)(F)F)nn1C)c1nc(-c2ccnc(C3(C)CC3)c2)no1` [Compound 240, (S)-1-methyl-N-(1-(3-(2-(1-methylcyclopropyl)pyridin-4-yl)-1,2,4-oxadiazol-5-yl)ethyl)-3-(trifluoromethyl)-1H-pyrazole-5-carboxamide] cannot be ordered by IC50: no more than 1000 nM for the first, no more than 1000 nM for the second.

`Cn1nc(C(F)(F)F)cc1C(=O)NC(CC(=O)NCCO)c1nc(-c2cccc(F)c2)no1` (single isomer, unassigned) [Compound 121] and `Cn1nc(C(F)(F)F)cc1C(=O)NC(c1nc(-c2cccc(F)c2)no1)C1COC1` (centres unmarked) [Compound 147] cannot be ordered by IC50: no less than 20000 nM for the first, 1000 to 20000 nM for the second.

`CC(NC(=O)c1cc(C2CC2)nn1C)c1nc(-c2cccc(Cl)c2)no1` (centres unmarked) [Compound 6] and `C[C@H](NC(=O)c1cc(C(F)(F)F)nn1C)c1nc(-c2cccc(C#N)c2)no1` [Compound 104] cannot be ordered by IC50: no more than 1000 nM for the first, 1000 to 20000 nM for the second.

`C[C@H](NC(=O)c1ccnn1C1CCC1)c1nc(-c2ccnc(C3CC3)c2)no1` [Compound 304, 2-cyclobutyl-N-[(1S)-1-[3-(2-cyclopropyl-4-pyridyl)-1,2,4-oxadiazol-5-yl]ethyl]pyrazole-3-carboxamide] and `CC(NC(=O)c1cc(C(F)(F)F)nn1C)c1nc(-c2ccc(F)c(F)c2)no1` (centres unmarked) [Compound 67] cannot be ordered by IC50: no more than 1000 nM for the first, no more than 1000 nM for the second.

`CC[C@H](NC(=O)c1cc(C)n(-c2cccnc2)n1)c1nc(-c2ccnc(C)c2)no1` [Compound 299, (S)-5-methyl-N-(1-(3-(2-methylpyridin-4-yl)-1,2,4-oxadiazol-5-yl)propyl)-1-(pyridin-3-yl)-1H-pyrazole-3-carboxamide] and `Cn1nc(C2CC2)cc1C(=O)NC(COCc1ccccc1)c1nc(-c2cccc(F)c2)no1` (centres unmarked) [Compound 58, N-[2-benzyloxy-1-[3-(3-fluorophenyl)-1,2,4-oxadiazol-5-yl]ethyl]-5-cyclopropyl-2-methyl-pyrazole-3-carboxamide] cannot be ordered by IC50: no less than 20000 nM for the first, 1000 to 20000 nM for the second.

First: CC(NC(=O)c1cc(C(F)(F)F)nn1C)c1nc(-c2cccc(S(N)(=O)=O)c2)no1 (centres unmarked) [Compound 180, 1-methyl-N-(1-(3-(3-sulfamoylphenyl)-1,2,4-oxadiazol-5-yl)ethyl)-3-(trifluoromethyl)-1H-pyrazole-5-carboxamide]
Second: C[C@H](NC(=O)c1cc(C(F)(F)F)nn1C)c1nc(-c2ccc(F)c(F)c2)no1 (single isomer, unassigned) [Compound 77]
The IC50 of the first is higher: no less than 20000 nM for the first, no more than 1000 nM for the second. The second is the more potent here.
